Data reported in ChEMBL document CHEMBL3507680, “University of Dundee, Gates Library screen for HepG2 cell viability”.

Assay: Human HepG2 cell viability assay in 384 well format
Assay type: toxicity, cell-based
Design: dose 125 nL, time 70.5 hour; concentration not given beside the values
Settings: HepG2 cells, read-out: Inhibition

CC(CO)NC(=O)c1ccc(NCc2ccccc2)cc1 (stereo not given)
cytotoxicity at 70.5 h: -7%

CC1CN(C)CCN1C(=O)c1ccc(-n2cnnc2)cc1 (stereo not given)
cytotoxicity at 70.5 h: -1.59%

O=C(C[S+]([O-])Cc1ccc(Cl)cc1Cl)N1CCc2sccc2C1 (stereo not given)
cytotoxicity at 70.5 h: -3.09%

CCn1nc(C)c(-c2cncn2Cc2ccccc2CN(C)C)c1C
cytotoxicity at 70.5 h: -3.79%

O=C(NCCN1CCOCC1)C1=NOC2(CCN(Cc3nccs3)C2)C1 (stereo not given)
cytotoxicity at 70.5 h: -17.4%

Cc1cnn(C(C)C2CC2)c1NC(=O)c1ccco1 (stereo not given)
cytotoxicity at 70.5 h: -3.4%

CCS(=O)(=O)c1ccc(N2CCC(NC(=O)C3CCCCC3)CC2)cc1
cytotoxicity at 70.5 h: 0.314%

COc1ccccc1CN1C(=O)O[C@@H]2CN(CC3CC3)C[C@@H]21
cytotoxicity at 70.5 h: -0.52%

O=C(c1ncccn1)N1CC[C@H]2OCC[C@@]2(COc2ccccn2)C1
cytotoxicity at 70.5 h: -6.64%

COc1cccc(OC)c1-c1ccnc2cc(CC(=O)N(C)C)nn12
cytotoxicity at 70.5 h: -11.5%

Cc1ccc(C(=O)N2C[C@@H]3CCN(C(C)C)C[C@@H]3C2)cn1
cytotoxicity at 70.5 h: 0.492%

COc1ccncc1NCc1ccsc1
cytotoxicity at 70.5 h: -2.45%

Cc1nnc2n1CCN(C(=O)CN1C(=O)C(C)Oc3ccccc31)C2 (stereo not given)
cytotoxicity at 70.5 h: -7.32%

CCOc1ccccc1OC1CCN(C(=O)c2csnn2)CC1
cytotoxicity at 70.5 h: -5.03%

CC(c1ccc(F)cc1)N1CCN(Cc2nccn2C)CC1 (stereo not given)
cytotoxicity at 70.5 h: 4.48%

CCC(=O)N1CCN(c2cc(N(C)C)cnn2)CC1
cytotoxicity at 70.5 h: -10.5%

Nc1nc2c(c(=O)[nH]1)CCN(C(=O)c1ccccc1N1CCCC1)C2
cytotoxicity at 70.5 h: 0.043%

CCOC(=O)N(C)C1CCN(Cc2cnc3ccccn23)CC1
cytotoxicity at 70.5 h: -4.79%

Cc1ccc(C2CSCCN2C(=O)c2ccnc(N(C)C)c2)o1 (stereo not given)
cytotoxicity at 70.5 h: 18.6%

O=C(O)c1cc(-c2ccc3c(c2)OCO3)cc(S(=O)(=O)NC2CC2)c1
cytotoxicity at 70.5 h: -11.6%

NC(=O)Cn1cc(NC(=O)N2CCCCCC2)cn1
cytotoxicity at 70.5 h: -11.1%

Cc1nc2c(c(NCCNC(=O)C(C)C)n1)Cc1ccccc1OC2
cytotoxicity at 70.5 h: -6.01%

CN(C)C(=O)C1CCCN1c1ccnc2ccsc12 (stereo not given)
cytotoxicity at 70.5 h: -7.45%

O=c1n(Cc2ccccc2F)nc2ncccn12
cytotoxicity at 70.5 h: 21%

O=S(=O)(c1ccc(Cl)cc1)N1CCc2nc(C3CCNCC3)ncc2C1
cytotoxicity at 70.5 h: -4.46%

CCN1CCN(C(=O)C(C)N2CCc3cncnc3C2)CC1 (stereo not given)
cytotoxicity at 70.5 h: -4.42%

CCn1nc(C)c(CNC(=O)NCC(C)(O)c2ccsc2)c1C (stereo not given)
cytotoxicity at 70.5 h: -8.94%

c1cnn(C2CN(Cc3noc(C4CC4)n3)C2)c1
cytotoxicity at 70.5 h: -7.11%

CC(=O)N1CC[C@@H]2O[C@@H](COCC(=O)N3CCCC3)CC[C@@H]21
cytotoxicity at 70.5 h: 23.9%

CC1COCCN1C(=O)c1cnccn1 (stereo not given)
cytotoxicity at 70.5 h: 7.55%

CS(=O)(=O)CCNCc1ccc(OCc2cscn2)cc1
cytotoxicity at 70.5 h: -3.66%

Cc1cccc(=O)n1CCC(=O)N1CC[C@](C)(O)[C@H](C)C1
cytotoxicity at 70.5 h: -9.5%

O=C(CSC1CCCC1)N1CCN(c2ccc(-n3cncn3)nn2)CC1
cytotoxicity at 70.5 h: -2.51%

CN(Cc1ccccc1)CC(C)(C)NC(=O)c1cnccn1
cytotoxicity at 70.5 h: -0.0333%

CCc1nccn1CCC(=O)N1CCCC1c1ccc(F)cc1 (stereo not given)
cytotoxicity at 70.5 h: -1.42%

O=C(O)c1cccnc1CN1CCCCC1CCc1ccccn1 (stereo not given)
cytotoxicity at 70.5 h: -14.4%

COc1c(C2CC(=O)Nc3[nH]ncc32)cc2c(c1OC)OCO2 (stereo not given)
cytotoxicity at 70.5 h: -13.5%

O=C(CN1CCC(c2ccnn2CCO)CC1)NCc1ccco1
cytotoxicity at 70.5 h: 11.2%

CS(=O)(=O)N1CCN(c2cc(N3CCCC3CO)ncn2)CC1 (stereo not given)
cytotoxicity at 70.5 h: -7.63%

Nc1nc2c(c(N3CCN(C(=O)c4cccs4)CC3)n1)CCCC2
cytotoxicity at 70.5 h: -2.27%

O=C1COC2(COCCN(Cc3ccsc3)C2)CN1c1ccc(F)cc1 (stereo not given)
cytotoxicity at 70.5 h: -2.28%

Cc1ncc(CNC(=O)c2nn(C)c3c2CS(=O)(=O)CC3)s1
cytotoxicity at 70.5 h: -5.86%

Cn1cc(CCNC(=O)N2CCCc3c(F)cccc32)cn1
cytotoxicity at 70.5 h: 3.99%

CCn1nc(C)c(S(=O)(=O)Nc2cccc(C(=O)O)c2C)c1C
cytotoxicity at 70.5 h: -2.69%

COc1cc(NC(=O)c2ccc(C)c(F)c2)c(C(=O)N(C)C)cc1OC
cytotoxicity at 70.5 h: -12.5%
